Measured values published in US20250025443A1, “COMPOUNDS AND METHODS FOR TREATING CORONA VIRUSES” (CLEAR CREEK BIO, INC., priority 2021, published 2025).
Like-named read-outs stand apart in the source and are kept apart here.

Biological target: SARS-CoV-2 Papain-Like Protease (PLpro) (Severe acute respiratory syndrome coronavirus 2 (2019-nCoV) (SARS-CoV-2), UniProt P0DTD1)
Assay: biochemical
Settings: read-out: PLpro IC50
[1] = SARS-CoV-2 PLpro enzymatic fluorescence assay
[2] = PLpro enzymatic fluorescence assay, class symbols

SMILES | IC50 [1] | IC50 [2]
Cc1ccc(OCCN(C)C)cc1C(=O)NC1(c2cccc(Oc3ccccc3)c2)CC1 [Compound 270, 5-(2-(Dimethylamino)ethoxy)-2-methyl-N-(1-(3-phenoxyphenyl)cyclopropyl)benzamide] | > 5000 nM | –
Cc1ccc(OCCN(C)C)cc1C(=O)NC1(c2cccc(-c3ccsc3)c2)CC1 [Compound 325, 5-(2-(Dimethylamino)ethoxy)-2-methyl-N-(1-(3-(thiophen-3-yl)phenyl)cyclopropyl)benzamide] | 100 to 1000 nM | –
Cc1cc2ccn(C)c2cc1C(=O)N(C)C1(c2cccc3ccccc23)CC1 [Compound 208, N,1,5-Trimethyl-N-(1-(naphthalen-1-yl)cyclopropyl)-1H-indole-6-carboxamide] | > 5000 nM | –
Cc1ccc(OC[C@@H]2CCN2)cc1C(=O)NC1(c2cc(-c3ccn(C)n3)cc3ncccc23)CC1 [Compound 634, (S)-5-(Azetidin-2-ylmethoxy)-2-methyl-N-(1-(7-(1-methyl-1H-pyrazol-3-yl)quinolin-5-yl)cyclopropyl)benzamide] | – | < 100 nM
Cc1cc2nc(CN)[nH]c2cc1C(=O)N[C@H](C)c1cccc(-c2ccc(CN[C@H]3CC[C@@H](O)C3)s2)c1 [Compound 151, 2-(Aminomethyl)-N-((R)-1-(3-(5-((((1S,3R)-3-hydroxycyclopentyl)amino)methyl)thiophen-2-yl)phenyl)ethyl)-5-methyl-1H-benzo[d]imidazole-6-carboxamide] | 100 to 1000 nM | –
COCCN1CCC1COc1ccc(C)c(C(=O)NC2(c3cccc4ccccc34)CC2)c1 (centres unmarked) [Compound 348, 5-((1-(2-Methoxyethyl)azetidin-2-yl)methoxy)-2-methyl-N-(1-(naphthalen-1-yl)cyclopropyl)benzamide] | < 100 nM | –
Cc1nc2cccc(C3(NC(=O)c4cc(OCCN(C)C)ccc4C)CC3)c2s1 [Compound 403, 5-(2-(Dimethylamino)ethoxy)-2-methyl-N-(1-(2-methylbenzo[d]thiazol-7-yl)cyclopropyl)benzamide] | 100 to 1000 nM | –
Cc1ccc(OCCN(C)C)cc1C(=O)NC1(c2ccccc2C(F)(F)F)CC1 [Compound 321, 5-(2-(Dimethylamino)ethoxy)-2-methyl-N-(1-(2-(trifluoromethyl)phenyl)cyclopropyl)benzamide] | 100 to 1000 nM | –
Cc1cc2[nH]c(=O)[nH]c2cc1C(=O)NC1(c2cccc3ccccc23)CC1 [Compound 238, 6-Methyl-N-(1-(naphthalen-1-yl)cyclopropyl)-2-oxo-2,3-dihydro-1H-benzo[d]imidazole-5-carboxamide] | 100 to 1000 nM | –
COc1cc(C2(NC(=O)c3cc(OC[C@@]45CCCN4C[C@H](F)C5)ccc3C)CC2)c2cccnc2c1 [Compound 596, 5-(((2R,7aS)-2-Fluorohexahydro-1H-pyrrolizin-7a-yl)methoxy)-N-(1-(7-methoxyquinolin-5-yl)cyclopropyl)-2-methylbenzamide] | – | < 100 nM
Cc1cc2cn[nH]c2cc1C(=O)N[C@H](C)c1cccc2ccccc12 [Compound 142, (R)-5-Methyl-N-(1-(naphthalen-1-yl)ethyl)-1H-indazole-6-carboxamide] | 100 to 1000 nM | –
Cc1ccc2c(C3(NC(=O)c4cc(OC[C@@H]5CCN5C)ccc4C)CC3)cccc2n1 [Compound 547, (S)-2-Methyl-5-((1-methylazetidin-2-yl)methoxy)-N-(1-(2-methylquinolin-5-yl)cyclopropyl)benzamide] | < 100 nM | –
Cc1ccc(OC[C@@H]2CCN2C)cc1C(=O)NC1(c2cccc3ccccc23)CC1 [Compound 310, (S)-2-Methyl-5-((1-methylazetidin-2-yl)methoxy)-N-(1-(naphthalen-1-yl)cyclopropyl)benzamide] | < 100 nM | –
Cc1ccc(OC[C@@H]2CCN2C)cc1C(=O)NC1(c2cc(-c3cc4ccccc4s3)cc3ncccc23)CC1 [Compound 621, (S)-N-(1-(7-(Benzo[b]thiophen-2-yl)quinolin-5-yl)cyclopropyl)-2-methyl-5-((1-methylazetidin-2-yl)methoxy)benzamide] | – | < 100 nM
